Measured values from patent publication US20260285801A1, “LIPID NANOPARTICLE FOR TARGETED DELIVERY OF THERAPEUTIC PAYLOADS” (Trustees of Tufts College, priority 2023, published 2026).

Key:
[1] = LNP size and polydispersity index by dynamic light scattering (Zetasizer Nano ZS); type: physicochemical; details: LNP with mRNA payload formulated with the lipid; active lipid/Cholesterol/DOPC/DMG-PEG 16.8/4.0/2.0/1.0; Lipids:mRNA 25:1; PBS pH 7.4, 25° C.
Method: (§1) RNA working solutions (0.134 mg/ml) were prepared in 25 mM sodium acetate buffer using DNase/RNase-free distilled water. Lipid stock solutions (10 mg/mL) were freshly prepared with active lipids or helper lipids (e.g., cholesterol, DOPC or DSPC, or ALC-0159) in ethanol. Reagents were mixed by vortexing and sonicating until the lipids were completely dissolved. A lipid mixture was first prepared by combining the active lipids (e.g., ionizable lipids of the present disclosure) and helper lipids into one vial and mixing thoroughly. Lipid nanoparticles were then formed by mixing the RNA working solution (0.134 mg/ml) and the lipid mixture at 3:1 volume ratio, either manually (for smaller scale) or by Precision Igniter microfluidic device. The formulation solution was transferred into a 300 kDa MWCO Float-A-Lyzer G2 Dialysis Device and dialyzed against at least 1000-folds volume of 50 mM Tris buffer overnight at 4° C. The LNP solution was sterilized with a 0.22 μm filter.
(§2) For LNP characterization, size and polydispersity index (PDI) were determined by dynamic light scattering using a Zetasizer Nano ZS. 10 μL of LNP suspension was transferred to a low-volume cuvette containing 900 μL of Ca^2+ and Mg^2+ free PBS at pH 7.4. Refractive index was set to […] and temperature was set to 25° C. Encapsulation efficiency (EE %) was measured using a fluorescence plate-based assay employing the Ribogreen reagent (Invitrogen) as per PNI Ribogreen assay protocol 16. This assay measures the quantity of mRNA in samples with intact LNPs to determine the quantity of unencapsulated RNA as well as in LNP samples disrupted by triton X-100 to measure the total RNA. EE % is calculated as the difference between the total RNA and the unencapsulated RNA divided by the total RNA.

[2] = Encapsulation efficiency and mRNA quantity by Ribogreen fluorescence plate assay; type: physicochemical; details: LNP with mRNA payload formulated with the lipid, 16.8/4.0/2.0/1.0, Lipids:mRNA 25:1; for EE %: (total RNA - unencapsulated RNA)/total RNA
Method: as §1, §2

female adult BALB/c mice = assay: IV injection of Luc mRNA/LNP, whole body bioluminescence by IVIS imaging; type: in vivo; details: single i.v., 5 μg mRNA, 6 hours post injection; for delivery of the luciferase mRNA to the liver in vivo (luciferase intensity, IVIS): LNPs of L88, L854, L855 compared, FIGS. 4A-5B
Method: All animal experiments were conducted in accordance with the approved animal protocols. LNPs were formulated with lipids and mRNA encoding Luciferase (Luc) based on TABLE 3. LNPs comprising 5 μg mRNA and 50 μg active lipids (e.g., ionizable lipids) were injected intravenously (i.v.) to female adult BALB/c mice (6-8 wk. old). Six hours post injection, 100 μL of luciferin K salt (15 mg/mL in PBS) was administered to the mice through intraperitoneal injections. The mice were then imaged using the In Vivo Imaging System (IVIS) and the total flux of areas of interest was quantified. FIGS. 2A-2G illustrate representative IVIS data using the LNPs formulated with active lipids from TABLE 4. […] FIGS. 4A-7B show further analysis of the IVIS results. In FIGS. 4A-4B and FIGS. 5A-5B, the lipid nanoparticles were formulated with luciferase mRNA and lipids L88, L854, and L855, respectively. The experiment was conducted in duplicates. […] Existing lipid formulations in the industry were used as controls in the experiment. For example, lipids provided herein were compared to ALC-0315 (Pfizer) and SM-102 (Moderna).

SMILES	PDI [1]	Size (nm) [1] [nm]	[mRNA] Ug/ml [2] [Ug/ml]	EE % [2] [%]	delivery of the luciferase mRNA to the liver in vivo (luciferase intensity, IVIS) (female adult BALB/c mice)	luciferase mRNA delivery compared to SM-102 (female adult BALB/c mice; FIGS. 7A-7B)	luciferase mRNA delivery to the liver compared to ALC-0315 (female adult BALB/c mice; FIGS. 6A-6B)
CCCCCCC(CCCC)COC(=O)CCOC(=O)CCN(CCC(=O)OCCC(=O)OCC(CCCC)CCCCCC)CCN(C)CCN(CCC(=O)OCCC(=O)OCC(CCCC)CCCCCC)CCC(=O)OCCC(=O)OCC(CCCC)CCCCCC (stereo not shown) [Lipid L0855]	0.125	99.86	78.9	95.1	more efficient delivery of the luciferase mRNA to the liver	more luciferase mRNA delivery than SM-102	
CCCCCCC(CCCC)COC(=O)CCOC(=O)CCN(CCCN(C)CCCN(CCC(=O)OCCC(=O)OCC(CCCC)CCCCCC)CCC(=O)OCCC(=O)OCC(CCCC)CCCCCC)CCC(=O)OCCC(=O)OCC(CCCC)CCCCCC (stereo not shown) [Lipid L0854]	0.098	120.3	77.7	94.6	more efficient delivery of the luciferase mRNA to the liver		more luciferase mRNA delivery to the liver than ALC-0315
CCCCCCCCC(CCC)OC(=O)OCCOC(=O)CCN(CCC(=O)OCCOC(=O)OC(CCC)CCCCCCCC)CCN(C)CCN(CCC(=O)OCCOC(=O)OC(CCC)CCCCCCCC)CCC(=O)OCCOC(=O)OC(CCC)CCCCCCCC (stereo not shown) [Lipid L0638]	0.22	121.5	65.1	95.7			
